Measurements: US12390485B2, “Compounds and methods for suppressing an immune response to substances containing polyethylene glycol” (aAb Therapeutics, LLC, priority 2020, dated 2025)

Columns and labels:
[1] = test system: anti-PEG antibody response; assay: Treatment model: mice with existing anti-PEG antibody response from PEG-KLH (serum ELISA); type: in vivo, BALB/c mice; details: PEG alone before and after PEG-KLH boosting (P/P), Day 21 and Day 28; bleed Day 30; serum 1:500; FIG. 6
Description: Male BALB/c mice (aged 6-8 weeks) were immunized intraperitoneally (i.p.) with PEG conjugated to KLH (PEG-KLH) using Complete Freund's adjuvant on Day 1 (50 mcg) and boosted with the same conjugate using Incomplete Freund's adjuvant on Day 18 (25 mcg). Pre-immunization blood samples were collected by retroorbital bleeding on Day −5. All other blood draws were collected on the days indicated. For testing, pools of serum from each group (n=5) were generated by mixing equal volumes of serum from each mouse in the group. Treatments were as outlined below.
(§1) ELISAs were carried out as follows. Plates were coated overnight at 4° C. with 0.5 mcg antigen in 100 uL sodium carbonate coating buffer, then washed twice with PBS and blocked with 300 uL Blocking Buffer (nonfat dry milk-PBS (5% w/v) or 1× fish gel (Rockland immunochemicals)) at room temperature for 1 hr. […] After washing 3× for 5 minutes each with PBS, 100 uL TMBE was added to each well and a kinetic read taken for 5 minutes. Plates were allowed to continue the color development reaction for a total of 30 minutes at which time 100 uL stop solution was added and plates read. […]
In this treatment scenario, to generate anti-PEG antibodies prior to treatment, mice were first immunized with PEG-KLH conjugate on Day 0 and boosted on Day 22 (FIG. 5). […] Anti-PEG IgG antibodies were measured on Day 30 by ELISA as indicated above (serum diluted 1:500). […]

[2] = test system: anti-PEG antibody response; assay: Prophylaxis model: anti-PEG antibody response in PEG-naïve mice immunized with PEG-KLH (serum ELISA); type: in vivo, BALB/c mice
Description: Pre-immunization blood samples were collected by retroorbital bleeding on Day −5. All other blood draws were collected on the days indicated. For testing, pools of serum from each group (n=5) were generated by mixing equal volumes of serum from each mouse in the group. Treatments were as outlined below.
as §1
In the present experiment, we first studied the anti-PEG IgM antibody response. […] Anti-PEG IgM antibodies were then measured against PEG-BSA by ELISA from bleeds collected on Day −5 and Day 9 (serum dilution 1:500)(FIG. 2).
In the present experiment, detection of IgG antibodies on Day 9 is not generally expected as this antibody subclass generally takes two weeks or more to emerge after immunization. […] The anti-PEG IgG response was assessed by ELISA as described above, using a serum dilution of 1:500.

## MeO-23PEG-Ethanolamine
[1]
  anti-PEG IgG antibodies: had no effect on anti-PEG IgG antibodies
[2]; treatment Day 0 and Day 7, additional PEG-KLH immunization Day 22, bleed Day 26, serum 1:500, FIG. 4
  anti-PEG IgG antibodies (ELISA): readily detected
[2]; treatment i.p. Day 0 and Day 7, PEG-KLH Day 1, bleed Day 9, pooled serum 1:500, FIG. 3
  anti-PEG IgM antibodies (ELISA against PEG-BSA): readily detected
